Measured values published in patent US9499550B2 (BRISTOL-MYERS SQUIBB COMPANY, priority 2012, dated 2016).
Like-named read-outs stand apart in the source and are kept apart here.

Legend:
[1] = tested on: HCV genotype 1a (H77 strain) replicon in HUH-7 cells; test: HCV replicon luciferase reporter assay, genotype 1a; format: cell-based; conditions: Hepatitis C virus, Huh-7, 72 h, 3 days incubation, read-out: LE_1a (EC50, range)
Summary of the method: (§1)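 Replicon inhibition for both genotypes was measured as Renilla luciferase signal (EnduRen, 7.5 μM final, 2 h) after 3-day, 37° C exposure of replicon-bearing HUH-7 cells in 4% FCS DMEM, 0.5% DMSO. The 1b construct carries S1179I; the 1a H77 construct carries P1496L and S2204I. Twenty-point, 3-fold dilutions were fitted four-parametrically for EC50, and CC50 was taken from multiplexed Cell Titer-Blue.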

[2] = tested on: HCV genotype 1b (Con1) replicon in HUH-7 cells; test: HCV replicon luciferase reporter assay, genotype 1b; format: cell-based; conditions: Hepatitis C virus, Huh-7, 72 h, 3 days incubation, read-out: LE_1b (EC50, range)
Summary of the method: as §1

[3] = HCV genotype 1a replicon luciferase assay, range class
[4] = HCV genotype 1b replicon luciferase assay, range class
[5] = HCV genotype 1a replicon luciferase
[6] = HCV genotype 1b replicon luciferase
[7] = GETYPE1A, HCV genotype 1a replicon luciferase
[8] = GETYPE1B, HCV genotype 1b replicon luciferase

## C[C@@H]1CC/C=C\[C@@H]2C[C@@]2(C(=O)NS(=O)(=O)C2(C)CC2)NC(=O)[C@@H]2C[C@@H](Oc3nc(OCC(F)F)cc4c(Cl)cccc34)CN2C(=O)[C@@H](NC(=O)OC(C)(C)C)[C@H](C)C1 [Compound 1074, tert-butyl ((2R,6S,7R,9R,13aS,14aR,16aS,Z)-2-((5-chloro-3-(2,2-difluoroethoxyl)isoquinolin-1-yl)oxy)-7,9-dimethyl-14a-(((1-methylcyclopropyl)sulfonyl)carbamoyl)-5,16-dioxo-1,2,3,5,6,7,8,9,10,11,13a,14,14a,15,16,16a-hexadecahydrocyclopropa[e]pyrrolo[1,2-a][1,4]diazacyclopentadecin-6-yl)carbamate]
[1]; [3]
  EC50: < 5.46 nM
[2]; [4]
  EC50: < 5.46 nM

## COc1ccc2c(O[C@@H]3C[C@H]4C(=O)N[C@]5(C(=O)NS(=O)(=O)C6(C)CC6)C[C@H]5/C=C\CC[C@@H](C)C[C@@H](C)[C@H](NC(=O)OC(C)(C)C(F)F)C(=O)N4C3)nc3c(c2c1)CCCO3 [Compound 6084, 1,1-difluoro-2-methylpropan-2-yl((2R,6S,7R,9R,13aS,14aR,16aS,Z)-2-((9-methoxy-2,3-dihydro-1H-pyrano[2,3-c]isoquinolin-6-yl)oxy)-7,9-dimethyl-14a-(((1-methylcyclopropyl)sulfonyl)carbamoyl)-5,16-dioxo-1,2,3,5,6,7,8,9,10,11,13a,14,14a,15,16,16a-hexadecahydrocyclopropa[e]pyrrolo[1,2-a][1,4]diazacyclopentadecin-6-yl)carbamate]
[1]; [5]
  EC50: 0.1 to 0.5 nM
[2]; [6]
  EC50: 0.51 to 1 nM

## CCOc1nnc(O[C@@H]2C[C@H]3C(=O)N[C@]4(C(=O)NS(=O)(=O)C5CC5)C[C@H]4/C=C\CC[C@H](C)C[C@@H](C)[C@H](NC(=O)OC(C)(C)C(F)(F)F)C(=O)N3C2)c2ccccc12 [Compound 5036, 1,1,1-trifluoro-2-methylpropan-2-yl((2R,6S,7R,9S,13aS,14aR,16aS,Z)-14a-((cyclopropylsulfonyl)carbamoyl)-2-((4-ethoxyphthalazin-1-yl)oxy)-7,9-dimethyl-5,16-dioxo-1,2,3,5,6,7,8,9,10,11,13a,14,14a,15,16,16a-hexadecahydrocyclopropa[e]pyrrolo[1,2-a][1,4]diazacyclopentadecin-6-yl)carbamate]
[1]; [5]
  EC50: 4.82 to 103 nM
[2]; [6]
  EC50: 4.82 to 103 nM

## COc1ccc2c(O[C@@H]3C[C@H]4C(=O)N[C@]5(C(=O)NS(=O)(=O)C6(C)CC6)C[C@H]5/C=C\CC[C@H](C)C[C@@H](C)[C@H](NC(=O)OCC5(C)CC5)C(=O)N4C3)nc(N3CCOCC3)cc2c1 [Compound 3090, (1-methylcyclopropyl)methyl ((2R,6S,7R,9S,13aS,14aR,16aS,Z)-2-((6-methoxy-3-morpholinoisoquinolin-1-yl)oxy)-7,9-dimethyl-14a-(((1-methylcyclopropyl)sulfonyl)carbamoyl)-5,16-dioxo-1,2,3,5,6,7,8,9,10,11,13a,14,14a,15,16,16a-hexadecahydrocyclopropa[e]pyrrolo[1,2-a][1,4]diazacyclopentadecin-6-yl)carbamate]
[1]; [3]
  EC50: 4.82 to 103 nM
[2]; [4]
  EC50: < 5.46 nM

## COc1ccc2c(O[C@@H]3C[C@H]4C(=O)N[C@]5(C(=O)NS(=O)(=O)C6CC6)C[C@H]5/C=C\CC[C@H](C)C[C@@H](C)[C@H](NC(=O)OC(C)(C)C(C)(F)F)C(=O)N4C3)nc(-c3ccc(OC(C)C)cn3)cc2c1 [Compound 5474, 3,3-difluoro-2-methylbutan-2-yl((2R,6S,7R,9S,13aS,14aR,16aS,Z)-14a-((cyclopropylsulfonyl)carbamoyl)-2-((3-(5-isopropoxypyridin-2-yl)-6-methoxyisoquinolin-1-yl)oxy)-7,9-dimethyl-5,16-dioxo-1,2,3,5,6,7,8,9,10,11,13a,14,14a,15,16,16a-hexadecahydrocyclopropa[e]pyrrolo[1,2-a][1,4]diazacyclopentadecin-6-yl)carbamate]
[1]; [5]
  EC50: 1.01 to 5 nM
[2]; [6]
  EC50: 1.01 to 5 nM

## COc1ccc2c(O[C@@H]3C[C@H]4C(=O)N[C@]5(C(=O)NS(=O)(=O)C6(C)CC6)C[C@H]5/C=C\CC[C@H](C)C[C@@H](C)[C@H](NC(=O)O[C@@H]5C[C@@H]6C[C@@H]6C5)C(=O)N4C3)nc(N3CCOCC3)cc2c1 [Compound 3096, (1R,3r,5S)-bicyclo[3.1.0]hexan-3-yl((2R,6S,7R,9S,13aS,14aR,16aS,Z)-2-((6-methoxy-3-morpholinoisoquinolin-1-yl)oxy)-7,9-dimethyl-14a-(((1-methylcyclopropyl)sulfonyl)carbamoyl)-5,16-dioxo-1,2,3,5,6,7,8,9,10,11,13a,14,14a,15,16,16a-hexadecahydrocyclopropa[e]pyrrolo[1,2-a][1,4]diazacyclopentadecin-6-yl)carbamate]
[1]; [3]
  EC50: 4.82 to 103 nM
[2]; [4]
  EC50: < 5.46 nM

## COc1ccc2c(O[C@@H]3C[C@H]4C(=O)N[C@]5(C(=O)NS(=O)(=O)C6(CF)CC6)C[C@H]5/C=C\CC[C@@H](C)C[C@@H](C)[C@H](NC(=O)OC5(C(F)(F)F)CCCOC5)C(=O)N4C3)ncc(C(F)(F)F)c2c1 (stereo partly drawn) [Compound 1177, 3-(trifluoromethyl)tetrahydro-2H-pyran-3-yl((2R,6S,7R,9R,13aS,14aR,16aS,Z)-14a-(((1-(fluoromethyl)cyclopropyl)sulfonyl)carbamoyl)-2-((6-methoxy-4-(trifluoromethyl)isoquinolin-1-yl)oxy)-7,9-dimethyl-5,16-dioxo-1,2,3,5,6,7,8,9,10,11,13a,14,14a,15,16,16a-hexadecahydrocyclopropa[e]pyrrolo[1,2-a][1,4]diazacyclopentadecin-6-yl)carbamate]
[1]; [3]
  EC50: < 5.46 nM
[2]; [4]
  EC50: < 5.46 nM

## COc1ccc2c(O[C@@H]3C[C@H]4C(=O)N[C@]5(C(=O)NS(=O)(=O)C6(C)CC6)C[C@H]5/C=C\CC[C@H](C)C[C@@H](C)[C@H](NC(=O)OC(C)(C)C)C(=O)N4C3)nc(-c3ccc(OC(C)C)cc3)nc2c1 [Compound 3007, tert-butyl ((2R,6S,7R,9S,13aS,14aR,16aS,Z)-2-((2-(4-isopropoxyphenyl)-7-methoxyquinazolin-4-yl)oxy)-7,9-dimethyl-14a-(((1-methylcyclopropyl)sulfonyl)carbamoyl)-5,16-dioxo-1,2,3,5,6,7,8,9,10,11,13a,14,14a,15,16,16a-hexadecahydrocyclopropa[e]pyrrolo[1,2-a][1,4]diazacyclopentadecin-6-yl)carbamate]
[1]; [3]
  EC50: < 5.46 nM
[2]; [4]
  EC50: < 5.46 nM

## CC[C@@H]1C[C@H](C)CC/C=C\[C@@H]2C[C@@]2(C(=O)NS(=O)(=O)C2CC2)NC(=O)[C@@H]2C[C@@H](Oc3ncc(OC)c4c(Cl)cccc34)CN2C(=O)[C@H]1NC(=O)OC(C)(C)C(F)(F)F [Compound 4252]
[1]; [7]
  EC50: 1.01 to 5 nM
[2]; [8]
  EC50: 0.51 to 1 nM

## CCCOc1cnc(O[C@@H]2C[C@H]3C(=O)N[C@]4(C(=O)NS(=O)(=O)C5CC5)C[C@H]4/C=C\CC[C@@H](C)C[C@@H](C)[C@H](NC(=O)OC(C)(C)C)C(=O)N3C2)c2ccccc12 [Compound 5089, tert-butyl ((2R,6S,7R,9R,13aS,14aR,16aS,Z)-14a-((cyclopropylsulfonyl)carbamoyl)-7,9-dimethyl-5,16-dioxo-2-((4-propoxyisoquinolin-1-yl)oxy)-1,2,3,5,6,7,8,9,10,11,13a,14,14a,15,16,16a-hexadecahydrocyclopropa[e]pyrrolo[1,2-a][1,4]diazacyclopentadecin-6-yl)carbamate]
[1]; [5]
  EC50: < 5.46 nM
[2]; [6]
  EC50: < 5.46 nM

## CC[C@@H]1C[C@H](C)CC/C=C\[C@@H]2C[C@@]2(C(=O)NS(=O)(=O)C2(C)CC2)NC(=O)[C@@H]2C[C@@H](Oc3nc4cc(OC)ccc4nc3C(C)C)CN2C(=O)[C@H]1NC(=O)OC(C)(C)C(F)(F)F [Compound 4251]
[1]; [7]
  EC50: 1.01 to 5 nM
[2]; [8]
  EC50: 1.01 to 5 nM
